Results taken from ChEMBL document CHEMBL2424604, “Design, synthesis and QSAR studies of dispiroindole derivatives as new antiproliferative agents” (Eur J Med Chem, 2013).

How the values were obtained:
Type in all cases: functional, cell-based
HepG2 = assay: Cytotoxicity against human HepG2 cells after 48 hrs by SRB assay; conditions: HepG2, 48 h
HeLa = assay: Cytotoxicity against human HeLa cells after 48 hrs by SRB assay
PC-3 = assay: Cytotoxicity against human PC3 cells after 48 hrs by SRB assay; conditions: PC-3, 48 h

Row | Compound | IC50 (HepG2) | IC50 (HeLa) | IC50 (PC-3)
1 | Cc1ccc(/C=C2\CCC[C@]3(C2=O)[C@H](c2ccc(C)cc2)CN(C)[C@]32C(=O)N(CN3CCOCC3)c3ccccc32)cc1 | 21.7 µM | 13.3 µM | 32.9 µM
2 | COc1ccc(/C=C2\CCC[C@]3(C2=O)[C@H](c2ccc(OC)c(OC)c2)CN(C)[C@]32C(=O)N(CN3CCOCC3)c3ccccc32)cc1OC | 6.99 µM | 10.9 µM | 32 µM
3 | Cc1ccc(/C=C2\CCC[C@]3(C2=O)[C@H](c2ccc(C)o2)CN(C)[C@]32C(=O)N(CN3CCOCC3)c3ccccc32)o1 | 28.4 µM | 18 µM | 21.2 µM
4 | CN1C[C@@H](c2cccs2)[C@@]2(CCC/C(=C\c3cccs3)C2=O)[C@@]12C(=O)N(CN1CCOCC1)c1ccccc12 | 30 µM | 27.4 µM | 30.1 µM
5 | COc1cccc2c1C(=O)c1c(O)c3c(c(O)c1C2=O)C[C@@](O)(C(=O)CO)C[C@@H]3O[C@H]1C[C@H](N)[C@H](O)[C@H](C)O1 [DOXORUBICIN] | – | 7.71 µM | 8.83 µM
6 | CN1C[C@@H](c2ccc(Cl)cc2Cl)[C@@]2(CCC/C(=C\c3ccc(Cl)cc3Cl)C2=O)[C@@]12C(=O)N(CN1CCOCC1)c1ccccc12 | 24.9 µM | 22.3 µM | 21.9 µM
7 | CN1C[C@@H](c2ccc(F)cc2)[C@@]2(CCC/C(=C\c3ccc(F)cc3)C2=O)[C@@]12C(=O)N(CN1CCOCC1)c1ccccc12 | 8.09 µM | 6.96 µM | 19.5 µM
8 | CN1C[C@@H](c2ccccc2)[C@@]2(CCC/C(=C\c3ccccc3)C2=O)[C@@]12C(=O)N(CN1CCOCC1)c1ccccc12 | 13.3 µM | 14.8 µM | 26.7 µM
9 | COc1ccc(/C=C2\CCC[C@]3(C2=O)[C@H](c2ccc(OC)cc2)CN(C)[C@]32C(=O)N(CN3CCOCC3)c3ccccc32)cc1 | 18.7 µM | 18.5 µM | 58.8 µM
